In the NIST ThermoML archive (doi:10.1021/acs.jced.6b00178):
Numbers after ± are expanded uncertainties.

Test: xn = mol fraction of the nth substance listed
Conditions: 100 kPa, Liquid; for viscosity: Concentric cylinders viscometry; for mass density: Vibrating tube method

CCCCn1cc[n+](C)c1.N#CN=C=[N-] [1-butyl-3-methylimidazolium dicyanamide] + CCCC[n+]1ccn(C)c1.O=S(=O)([N-]S(=O)(=O)C(F)(F)F)C(F)(F)F
Conditions	mass density, x2 = 0 [kg/m3]	mass density, x2 = 0.251 [kg/m3]	mass density, x2 = 0.457 [kg/m3]	mass density, x2 = 0.749 [kg/m3]	viscosity, x2 = 0 [mPa·s]	viscosity, x2 = 0.251 [mPa·s]	viscosity, x2 = 0.457 [mPa·s]	viscosity, x2 = 0.749 [mPa·s]
283.15 K	1070 ± 1	1194.3 ± 1	1280.8 ± 1	1381.8 ± 0.9	58.35 ± 3	72.33 ± 3.7	82.5 ± 4.2	95.81 ± 4.9
288.15 K	1066.7 ± 1	1190.5 ± 1	1276.6 ± 1	1377.2 ± 0.9	45.91 ± 2.3	56.47 ± 2.9	64.11 ± 3.3	73.99 ± 3.7
293.15 K	1063.4 ± 1	1186.7 ± 1	1272.5 ± 1	1372.7 ± 0.9	36.83 ± 1.9	44.98 ± 2.3	50.83 ± 2.6	58.31 ± 2.9
298.15 K	1060.2 ± 1	1183 ± 1	1268.5 ± 1	1368.1 ± 0.9	30.08 ± 1.5	36.45 ± 1.9	41.02 ± 2.1	46.82 ± 2.4
303.15 K	1057 ± 1	1179.3 ± 1	1264.4 ± 1	1363.6 ± 0.9	24.94 ± 1.3	30.02 ± 1.5	33.66 ± 1.7	38.18 ± 1.9
308.15 K	1053.8 ± 1	1175.7 ± 1	1260.4 ± 1	1359.2 ± 0.8	20.98 ± 1.1	25.08 ± 1.3	28.01 ± 1.4	31.61 ± 1.6
313.15 K	1050.6 ± 1	1172 ± 1	1256.4 ± 1	1354.7 ± 0.8	17.86 ± 0.91	21.22 ± 1.1	23.6 ± 1.2	26.5 ± 1.3
318.15 K	1047.5 ± 1	1168.4 ± 1	1252.4 ± 0.9	1350.3 ± 0.8	15.38 ± 0.79	18.16 ± 0.92	20.12 ± 1	22.48 ± 1.1
323.15 K	1044.4 ± 1	1164.9 ± 1	1248.5 ± 0.9	1345.9 ± 0.8	13.38 ± 0.68	15.7 ± 0.8	17.33 ± 0.88	19.27 ± 0.97
328.15 K	1041.3 ± 1	1161.3 ± 1	1244.6 ± 0.9	1341.5 ± 0.8	11.74 ± 0.6	13.69 ± 0.7	15.06 ± 0.76	16.68 ± 0.84
333.15 K	1038.2 ± 1	1157.8 ± 1	1240.7 ± 0.9	1337.2 ± 0.8	10.38 ± 0.53	12.05 ± 0.61	13.27 ± 0.67	14.56 ± 0.74
338.15 K	1035.2 ± 1	1154.3 ± 1	1236.8 ± 0.9	1332.9 ± 0.8	9.251 ± 0.47	10.68 ± 0.54	11.72 ± 0.59	12.82 ± 0.65
343.15 K	1032.1 ± 1	1150.8 ± 1	1233 ± 0.9	1328.6 ± 0.8	8.298 ± 0.42	9.53 ± 0.48	10.43 ± 0.53	11.36 ± 0.57
348.15 K	1029.1 ± 1	1147.3 ± 1	1229.2 ± 0.9	1324.3 ± 0.8	7.488 ± 0.38	8.56 ± 0.44	9.335 ± 0.47	10.14 ± 0.51
353.15 K	1026.1 ± 1	1143.8 ± 1	1225.4 ± 0.9	1320 ± 0.8	6.794 ± 0.35	7.728 ± 0.39	8.408 ± 0.43	9.098 ± 0.46
358.15 K	1023.2 ± 1	1140.4 ± 1	1221.6 ± 0.9	1315.8 ± 0.8	6.196 ± 0.32	7.016 ± 0.36	7.615 ± 0.39	8.211 ± 0.41
363.15 K	1020.3 ± 0.9	1137 ± 1	1217.9 ± 0.9	1311.6 ± 0.8	5.677 ± 0.29	6.403 ± 0.33	6.932 ± 0.35	7.449 ± 0.38

CCCCn1cc[n+](C)c1.F[P-](F)(F)(F)(F)F [1-butyl-3-methylimidazolium hexafluorophosphate] + CCCC[n+]1ccn(C)c1.O=S(=O)([N-]S(=O)(=O)C(F)(F)F)C(F)(F)F
Conditions	mass density, x2 = 0 [kg/m3]	mass density, x2 = 0.25 [kg/m3]	mass density, x2 = 0.5 [kg/m3]	mass density, x2 = 0.748 [kg/m3]	viscosity, x2 = 0 [mPa·s]	viscosity, x2 = 0.25 [mPa·s]	viscosity, x2 = 0.5 [mPa·s]	viscosity, x2 = 0.748 [mPa·s]
283.15 K	1379.9 ± 0.7	1402.5 ± 0.7	1421.1 ± 0.7	1437.4 ± 0.8	794.33 ± 48	360.25 ± 20	221.31 ± 12	148.25 ± 7.7
288.15 K	1376.5 ± 0.7	1398.3 ± 0.7	1417.2 ± 0.7	1433.1 ± 0.7	557.27 ± 33	264.71 ± 14	166.04 ± 8.7	112.57 ± 5.8
293.15 K	1372 ± 0.7	1393.8 ± 0.7	1412.6 ± 0.7	1428.4 ± 0.7	393.86 ± 22	196.39 ± 10	126.16 ± 6.5	87.23 ± 4.4
298.15 K	1367.6 ± 0.7	1389.4 ± 0.7	1408 ± 0.7	1423.7 ± 0.7	285.02 ± 16	148.96 ± 7.8	97.74 ± 5	68.88 ± 3.5
303.15 K	1363.4 ± 0.7	1385 ± 0.7	1403.5 ± 0.7	1419 ± 0.7	210.93 ± 11	115.08 ± 5.9	77.09 ± 3.9	55.3 ± 2.8
308.15 K	1359.2 ± 0.7	1380.7 ± 0.7	1399 ± 0.7	1414.3 ± 0.7	159.46 ± 8.3	90.44 ± 4.6	61.82 ± 3.1	45.08 ± 2.3
313.15 K	1355.1 ± 0.7	1376.4 ± 0.7	1394.5 ± 0.7	1409.7 ± 0.7	122.78 ± 6.3	72.18 ± 3.6	50.31 ± 2.5	37.25 ± 1.9
318.15 K	1351 ± 0.7	1372.1 ± 0.7	1390 ± 0.7	1405.1 ± 0.7	96.28 ± 4.9	58.45 ± 2.9	41.52 ± 2.1	31.17 ± 1.6
323.15 K	1347 ± 0.7	1367.9 ± 0.7	1385.6 ± 0.7	1400.5 ± 0.7	76.72 ± 3.9	47.96 ± 2.4	34.68 ± 1.7	26.38 ± 1.3
328.15 K	1342.9 ± 0.7	1363.6 ± 0.7	1381.2 ± 0.7	1395.9 ± 0.7	62.04 ± 3.1	39.84 ± 2	29.3 ± 1.5	22.56 ± 1.1
333.15 K	1338.9 ± 0.7	1359.4 ± 0.7	1376.7 ± 0.7	1391.3 ± 0.7	50.85 ± 2.6	33.47 ± 1.7	25 ± 1.3	19.47 ± 0.98
338.15 K	1334.9 ± 0.7	1355.2 ± 0.7	1372.3 ± 0.7	1386.8 ± 0.7	42.2 ± 2.1	28.39 ± 1.4	21.53 ± 1.1	16.96 ± 0.85
343.15 K	1330.9 ± 0.7	1351 ± 0.7	1368 ± 0.7	1382.3 ± 0.7	35.43 ± 1.8	24.3 ± 1.2	18.7 ± 0.94	14.88 ± 0.75
348.15 K	1326.9 ± 0.7	1346.9 ± 0.7	1363.6 ± 0.7	1377.9 ± 0.7	30.04 ± 1.5	20.99 ± 1.1	16.38 ± 0.82	13.15 ± 0.66
353.15 K	1323 ± 0.7	1342.7 ± 0.7	1359.3 ± 0.7	1373.4 ± 0.7	25.72 ± 1.3	18.29 ± 0.92	14.44 ± 0.73	11.7 ± 0.59
358.15 K	1319 ± 0.7	1338.6 ± 0.7	1355.1 ± 0.7	1369 ± 0.7	22.22 ± 1.1	16.04 ± 0.81	12.82 ± 0.65	10.47 ± 0.53
363.15 K	1315.2 ± 0.7	1334.6 ± 0.7	1350.8 ± 0.7	1364.6 ± 0.7	19.36 ± 0.97	14.17 ± 0.71	11.46 ± 0.58	9.428 ± 0.47
